The values below come from US11192914B2, “Alkyne containing nucleotide and nucleoside therapeutic compositions and uses related thereto” (Emory University, priority 2016, dated 2021).

Assay [1] concerns ZIKV. The experiment in a line: ZIKV infectious (cytoprotection, XTT) assay. The following applies: Zika virus, Huh-7, Cell Line Huh-7 (Example 92); read-out: ZIKV EC50. In kind it is cell-based. (In general: Tetrazolium assays rely on reduction of a dye to a coloured formazan, in cell work by metabolically active cells.)
For assay [2], the system named is ZIKV. The experiment in a line: ZIKV infectious (cytoprotection, XTT) assay. Format: cell-based, Zika virus. Conditions: Zika virus, Vero, Cell Line Vero (Example 92); read-out: ZIKV EC50. The procedure:
Vero cells were passaged in DMEM medium in T-75 flasks prior to use in the antiviral assay. On the day preceding the assay, the cells were split 1:2 to assure they were in exponential growth phase at the time of infection. The cells were resuspended at […] cells per well in tissue culture medium and added to flat bottom microtiter plates in a volume of […]. The plates were incubated at 37° C./5% CO2 overnight to allow for cell adherence. Separately, Zika virus was titrated in LLCMK2 cells to define the inoculum for use in the antiviral assay. Virus was diluted in DMEM medium such that the amount of virus added to each well in a volume of […] was the amount determined to achieve 85 to 95% cell killing at 5 days post-infection. Following incubation test plates were stained with XTT dye. XTT solution was prepared daily as a stock solution of 1 mg/mL in RPM11640. PMS solution was prepared at 0.15 mg/mL in PBS and stored in the dark at −20° C. XTT/PMS stock was prepared immediately before use by adding […] of PMS per mL of XTT solution. Fifty microliters of XTT/PMS was added to each well of the plate, and the plate was reincubated for 4 hours at 37° C. Plates were sealed with adhesive plate sealers ad shaken gently to mix the soluble formazan product, and the plate was read spectrophotometrically read 450/650 nm with a Molecular Devices Vmax plate reader. The raw data was collected from Softmax Pro and imported into a Microsoft Excel XLfit4 spreadsheet for analysis using four parameter curve fit calculations.

Another assay has as its system RSV. The experiment in a line: Antiviral assay RSV. In kind it is cell-based. The following applies: human respiratory syncytial virus, Huh-7, read-out: RSV EC50. The protocol: Cell Preparation-HEp2 cells (human epithelial cells, ATCC catalog #CCL-23) were passaged in DMEM supplemented with 10% FBS, 2 mM L-glutamine, 100 U/mL penicillin, 100 μg/mL streptomycin 1 mM sodium pyruvate, and 0.1 mM NEAA, T-75 flasks prior to use in the antiviral assay. On the day preceding the assay, the cells were split 1:2 to assure they were in an exponential growth phase at the time of infection. Total cell and viability quantification was performed using a hemocytometer and Trypan Blue dye exclusion. Cell viability was greater than 95% for the cells to be utilized in the assay. The cells were resuspended at 1×10^4 cells per well in tissue culture medium and added to flat bottom microtiter plates in a volume of 100 μL. The plates were incubated at 37° C./5% CO2 overnight to allow for cell adherence. […] Virus was resuspended and diluted into assay medium (DMEM supplemented with 2% heat-inactivated FBS, 2 mM L-glutamine, 100 U/mL penicillin, 100 μg/mL streptomycin, 1 mM sodium pyruvate, and 0.1 mM NEAA) such that the amount of virus added to each well in a volume of 100 μL was the amount determined to yield 85 to 95% cell killing at 6 days post-infection. Efficacy and Toxicity XTT-Plates were stained and analyzed as previously described for the Dengue cytoprotection assay.

The next assay concerns DENV2 New Guinea C. The experiment in a line: Anti-Dengue virus cytoprotection assay. In kind it is cell-based, Dengue virus type 2. The protocol:
Cell Preparation—BHK21 cells (Syrian golden hamster kidney cells, ATCC catalog #CCL-I 0), Vero cells (African green monkey kidney cells, ATCC catalog #CCL-81), or Huh-7 cells (human hepatocyte carcinoma) were passaged in DMEM supplemented with 10% FBS, 2 mM L-glutamine, 100 U/mL penicillin, and 100 μg/mL streptomycin in T-75 flasks prior to use in the antiviral assay. On the day preceding the assay, the cells were split 1:2 to assure they were in an exponential growth phase at the time of infection. Total cell and viability quantification was performed using a hemocytometer and Trypan Blue dye exclusion. Cell viability was greater than 95% for the cells to be utilized in the assay. The cells were resuspended at 3×10^3 ([…] for Vero cells and Huh-7 cells) cells per well in tissue culture medium and added to flat bottom microtiter plates in a volume of 100 μL. The plates were incubated at 37° C./5% CO2 overnight to allow for cell adherence.
Virus Preparation—The Dengue virus type 2 New Guinea C strain was obtained from ATCC (catalog #VR-1584) and was grown in LLC-MK2 (Rhesus monkey kidney cells; catalog #CCL-7.1) cells for the production of stock virus pools. An aliquot of virus pretitered in BHK21 cells was removed from the freezer (−80° C.) and allowed to thaw slowly to room temperature in a biological safety cabinet. Virus was resuspended and diluted into assay medium (DMEM supplemented with 2% heat-inactivated FBS, 2 mM L-glutamine, 100 U/mL penicillin, and 100 μg/mL streptomycin) such that the amount of virus added to each well in a volume of 100 μL was the amount determined to yield 85 to 95% cell killing at 6 days post-infection.
Plate Format—Each plate contains cell control wells (cells only), virus control wells (cells plus virus), triplicate drug toxicity wells per compound (cells plus drug only), as well as triplicate experimental wells (drug plus cells plus virus).
Efficacy and Toxicity XTT-Following incubation at 37° C. in a 5% CO2 incubator, the test plates were stained with the tetrazolium dye XTT (2,3-bis(2-methoxy-4-nitro-5-sulfophenyl)-5-[(phenylamino)carbonyl]-2H-tetrazolium hydroxide). XTT-tetrazolium was metabolized by the mitochondrial enzymes of metabolically active cells to a soluble formazan product, allowing rapid quantitative analysis of the inhibition of virus-induced cell killing by antiviral test substances. XTT solution was prepared daily as a stock of 1 mg/mL in RPMI 1640. Phenazine methosulfate (PMS) solution was prepared at 0.15 mg/mL in PBS and stored in the dark at −20° C. XTT/PMS stock was prepared immediately before use by adding 40 μL of PMS per ml of XTT solution. Fifty microliters of XTT/PMS was added to each well of the plate and the plate was reincubated for 4 hours at 37° C. Plates were sealed with adhesive plate sealers and shaken gently or inverted several times to mix the soluble formazan product and the plate was read spectrophotometrically at 450/650 nm with a Molecular Devices Vmax plate reader.
Data Analysis —Raw data was collected from the Softmax Pro 4.6 software and imported into a Microsoft Excel spreadsheet for analysis. The percent reduction in viral cytopathic effect compared to the untreated virus controls was calculated for each compound. The percent cell control value was calculated for each compound comparing the drug treated uninfected cells to the uninfected cells in medium alone.

The subject of a further assay is HRV. The assay can be described thus: Antiviral assay HRV. Conditions: HeLa, read-out: HRV EC50. In kind it is cell-based.

SMILES strings stand for the structures. Like-named read-outs stand apart in the source and are kept apart here.

Usually EC50 stands for the concentration giving half of the maximal effect.

For the compound `C#CC1(O)C(O)[C@@H](COP(=O)(OCOC(=O)C(C)(C)C)OCOC(=O)C(C)(C)C)O[C@H]1n1ccc(=O)[nH]c1=O` (stereo partly shown) [EIDD-02290], the EC50 stood at 310 nM with ZIKV [1]; 1060 nM in the assay on ZIKV [2]; 90000 nM in the assay on RSV; 240 nM with DENV2 New Guinea C (DENV2, Huh-7, read-out: DENV2 EC50); 7560 nM in the assay on DENV2 New Guinea C (DENV2, Vero, read-out: DENV2 EC50); 7760 nM in the assay with DENV2 New Guinea C (DENV2, read-out: DENV2 EC50). In the assay with HRV, the EC50 came out at 50 nM.
